# Test results reported in PMC6747015, “Structure–function study of a novel inhibitor of the casein kinase 1 family in Arabidopsis thaliana” (Plant Direct, 2019).
# Legend:
# CPK family = test: AMI‐329 bead binding with AMI‐331 competitor, CPK family; set-up: species or system Arabidopsis thaliana
# Protocol: (§1) Screening for proteins bound to AMI‐329 beads was done by a method similar to what has previously been described (Uehara et al., 2019). Briefly, two‐week‐old seedlings grown under LD conditions were harvested at time points ZT2, ZT6, ZT9, and ZT17, and stored at −80°C. Proteins from the frozen plant samples were incubated with 0, 5, or 50 µM of AMI‐331 at 4°C for 30 min with rotary mixing. Two technical replicates were used for each experiment. PBS‐washed AMI‐329 beads were added to the protein samples and gently rotated at 4°C for 1 hr. AMI‐329 bead resins were washed with bead buffer (Uehara et al., 2019) six times. The washed resins were suspended in SDS sample buffer and boiled for 8 min. Protein samples were in‐gel‐digested as previously described (Uehara et al., 2019). Peptides were analyzed with a Q Exactive hybrid quadrupole‐orbitrap mass spectrometer (Thermo Fisher Scientific), as described previously (Uehara et al., 2019). MS/MS spectra were interpreted, and peak lists were generated using Proteome Discoverer 2.0.0.802 (Thermo Fisher Scientific). Searches were performed using SEQUEST (Thermo Fisher Scientific) against the Arabidopsis thaliana (TAIR TaxID = 3,702) peptide sequence database. […]
# (§2) To examine other potential targets of AMI‐331, we analyzed the spectra for PHA767491 target proteins (Uehara et al., 2019). […]
# CKL12 (AT5G57015) = biological target: T1, CKL12 (AT5G57015) (Arabidopsis thaliana, UniProt Q8VYK9); test: AMI‐329 bead binding with AMI‐331 competitor, CKL12
# T1 construct: from tissue; host or cells: Arabidopsis seedlings, two weeks old
# T1 sequence (Q8VYK9 whole entry): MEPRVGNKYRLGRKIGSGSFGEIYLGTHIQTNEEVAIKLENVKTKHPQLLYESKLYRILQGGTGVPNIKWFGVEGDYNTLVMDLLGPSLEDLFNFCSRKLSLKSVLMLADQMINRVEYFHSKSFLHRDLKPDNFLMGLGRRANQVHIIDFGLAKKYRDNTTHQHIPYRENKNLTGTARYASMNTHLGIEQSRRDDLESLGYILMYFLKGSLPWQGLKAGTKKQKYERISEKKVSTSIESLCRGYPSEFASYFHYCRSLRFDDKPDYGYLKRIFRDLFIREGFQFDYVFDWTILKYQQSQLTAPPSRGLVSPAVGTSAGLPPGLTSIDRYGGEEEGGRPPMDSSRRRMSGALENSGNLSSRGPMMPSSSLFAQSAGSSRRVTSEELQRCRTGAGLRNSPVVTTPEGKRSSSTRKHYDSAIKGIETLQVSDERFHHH
# Protocol: as §1, with “2019).” for “2019). MS/MS spectra were interpreted, and peak lists were generated using Proteome Discoverer 2.0.0.802 (Thermo Fisher Scientific). Searches were performed using SEQUEST (Thermo Fisher Scientific) against the Arabidopsis thaliana (TAIR TaxID = 3,702) peptide sequence database.”
# (§3) However, another possible mechanism for the strong AMI‐331 biological activity in vivo is that it targets proteins other than the CK1 family for period lengthening. […] It is noteworthy that kinase AT4G08800 is very similar to the CKL family, but the ATP‐binding pocket of mammalian CK1 as determined by its crystal structure (Shinohara et al., 2017) was absent from AT4G08800, as shown in an Araport 11 model (https://www.araport.org). […]
# CKL11 (AT4G14340) = biological target: T2, CKL11 (AT4G14340) (Arabidopsis thaliana, UniProt Q39050); test: AMI‐329 bead binding with AMI‐331 competitor, CKL11
# T2 construct: from tissue; host or cells: Arabidopsis seedlings, two weeks old
# T2 sequence (Q39050 whole entry): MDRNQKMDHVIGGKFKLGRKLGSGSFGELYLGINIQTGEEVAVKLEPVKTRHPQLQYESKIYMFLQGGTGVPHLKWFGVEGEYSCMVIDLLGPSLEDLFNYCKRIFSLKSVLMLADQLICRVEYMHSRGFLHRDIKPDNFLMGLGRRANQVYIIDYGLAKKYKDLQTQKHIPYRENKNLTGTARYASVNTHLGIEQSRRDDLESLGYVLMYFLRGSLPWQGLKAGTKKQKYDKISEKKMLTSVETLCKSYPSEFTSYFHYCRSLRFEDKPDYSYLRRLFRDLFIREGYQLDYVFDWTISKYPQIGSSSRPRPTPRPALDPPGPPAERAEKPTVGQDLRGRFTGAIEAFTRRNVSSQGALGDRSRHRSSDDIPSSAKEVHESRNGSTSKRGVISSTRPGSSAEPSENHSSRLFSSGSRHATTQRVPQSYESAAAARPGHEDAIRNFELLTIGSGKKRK
# Protocol: as §1, with “2019).” for “2019). MS/MS spectra were interpreted, and peak lists were generated using Proteome Discoverer 2.0.0.802 (Thermo Fisher Scientific). Searches were performed using SEQUEST (Thermo Fisher Scientific) against the Arabidopsis thaliana (TAIR TaxID = 3,702) peptide sequence database.”
# as §3
# CKL9 (AT1G03930) = biological target: T3, CKL9 (AT1G03930) (Arabidopsis thaliana, UniProt Q9ZWB3); test: AMI‐329 bead binding with AMI‐331 competitor, CKL9
# T3 construct: from tissue; host or cells: Arabidopsis seedlings, two weeks old
# T3 sequence (Q9ZWB3 whole entry): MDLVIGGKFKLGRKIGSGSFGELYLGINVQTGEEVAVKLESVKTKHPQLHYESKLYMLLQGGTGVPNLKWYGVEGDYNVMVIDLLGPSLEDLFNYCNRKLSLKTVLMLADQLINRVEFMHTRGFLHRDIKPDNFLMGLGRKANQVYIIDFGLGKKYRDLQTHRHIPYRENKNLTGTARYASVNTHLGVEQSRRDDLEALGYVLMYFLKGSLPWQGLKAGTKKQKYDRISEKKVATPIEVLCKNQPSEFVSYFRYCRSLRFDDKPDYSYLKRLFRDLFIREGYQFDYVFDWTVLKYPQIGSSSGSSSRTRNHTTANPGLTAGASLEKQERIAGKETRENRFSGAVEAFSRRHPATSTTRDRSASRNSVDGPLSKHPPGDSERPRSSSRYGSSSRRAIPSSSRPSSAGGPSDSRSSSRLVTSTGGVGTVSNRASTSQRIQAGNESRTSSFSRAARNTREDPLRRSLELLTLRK
# Protocol: as §1, with “2019).” for “2019). MS/MS spectra were interpreted, and peak lists were generated using Proteome Discoverer 2.0.0.802 (Thermo Fisher Scientific). Searches were performed using SEQUEST (Thermo Fisher Scientific) against the Arabidopsis thaliana (TAIR TaxID = 3,702) peptide sequence database.”
# as §3
# CKL1 = CKL1 (Arabidopsis thaliana, UniProt P42158); test: In vitro CKL1 kinase activity; type: biochemical
# Sequence of CKL1 (P42158 whole entry): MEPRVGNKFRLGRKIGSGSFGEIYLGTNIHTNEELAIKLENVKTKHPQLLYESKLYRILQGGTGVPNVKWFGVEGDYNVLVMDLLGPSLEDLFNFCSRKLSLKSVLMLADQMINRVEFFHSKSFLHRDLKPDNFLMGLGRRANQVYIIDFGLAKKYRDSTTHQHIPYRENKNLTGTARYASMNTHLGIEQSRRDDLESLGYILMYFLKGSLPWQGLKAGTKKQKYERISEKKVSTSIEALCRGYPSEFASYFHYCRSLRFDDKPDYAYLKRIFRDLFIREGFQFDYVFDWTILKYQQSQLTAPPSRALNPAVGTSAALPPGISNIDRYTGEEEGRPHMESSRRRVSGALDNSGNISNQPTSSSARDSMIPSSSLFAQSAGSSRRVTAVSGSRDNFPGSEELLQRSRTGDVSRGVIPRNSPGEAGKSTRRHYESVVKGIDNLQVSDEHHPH
# Source text: Supplemental Figure3.InvitroCKL1 kinaseactivitywithAMI-331.
# [1] = biological target: T4, Membrane protein AT5G40670 (Arabidopsis thaliana, UniProt P57758); test: AMI‐329 bead binding with AMI‐331 competitor, membrane protein AT5G40670
# T4 construct: from tissue; host or cells: Arabidopsis seedlings, two weeks old
# T4 sequence (P57758 whole entry): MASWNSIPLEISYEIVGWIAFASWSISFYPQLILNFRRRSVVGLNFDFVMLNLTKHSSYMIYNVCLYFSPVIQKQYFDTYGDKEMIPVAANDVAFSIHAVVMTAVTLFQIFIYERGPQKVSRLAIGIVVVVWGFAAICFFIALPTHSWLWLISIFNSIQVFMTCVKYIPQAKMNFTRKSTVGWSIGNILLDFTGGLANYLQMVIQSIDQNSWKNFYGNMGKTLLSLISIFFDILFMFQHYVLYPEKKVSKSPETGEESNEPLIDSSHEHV
# Protocol: as §1, with “2019).” for “2019). MS/MS spectra were interpreted, and peak lists were generated using Proteome Discoverer 2.0.0.802 (Thermo Fisher Scientific). Searches were performed using SEQUEST (Thermo Fisher Scientific) against the Arabidopsis thaliana (TAIR TaxID = 3,702) peptide sequence database.”
# as §3
# CKL10 (AT3G23340) = biological target: T5, CKL10 (AT3G23340) (Arabidopsis thaliana, UniProt Q9LW62); test: AMI‐329 bead binding with AMI‐331 competitor, CKL10
# T5 construct: from tissue; host or cells: Arabidopsis seedlings, two weeks old
# T5 sequence (Q9LW62 whole entry): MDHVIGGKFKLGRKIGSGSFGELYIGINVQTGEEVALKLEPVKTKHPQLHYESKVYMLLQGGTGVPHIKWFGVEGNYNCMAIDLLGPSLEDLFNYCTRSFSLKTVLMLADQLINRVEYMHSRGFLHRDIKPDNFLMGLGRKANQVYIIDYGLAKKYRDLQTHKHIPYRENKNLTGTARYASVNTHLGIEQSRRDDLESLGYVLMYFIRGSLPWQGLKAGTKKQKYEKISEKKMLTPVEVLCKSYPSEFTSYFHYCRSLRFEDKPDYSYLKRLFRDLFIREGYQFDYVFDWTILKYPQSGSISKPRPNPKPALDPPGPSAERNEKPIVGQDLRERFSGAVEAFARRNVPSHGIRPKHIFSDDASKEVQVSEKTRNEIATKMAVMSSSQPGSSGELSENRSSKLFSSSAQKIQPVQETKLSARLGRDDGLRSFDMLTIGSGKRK
# Protocol: as §1, with “2019).” for “2019). MS/MS spectra were interpreted, and peak lists were generated using Proteome Discoverer 2.0.0.802 (Thermo Fisher Scientific). Searches were performed using SEQUEST (Thermo Fisher Scientific) against the Arabidopsis thaliana (TAIR TaxID = 3,702) peptide sequence database.”
# as §3
# Reductase C (AT2G41680) = biological target: T6, Reductase C (AT2G41680) (Arabidopsis thaliana, UniProt O22229); test: AMI‐329 bead binding with AMI‐331 competitor, reductase C
# T6 construct: Proteins from the frozen plant samples were incubated with 0, 5, or 50 µM of AMI‐331; from tissue; host or cells: two-week-old Arabidopsis seedlings (protein lysate)
# T6 sequence (O22229 68-529): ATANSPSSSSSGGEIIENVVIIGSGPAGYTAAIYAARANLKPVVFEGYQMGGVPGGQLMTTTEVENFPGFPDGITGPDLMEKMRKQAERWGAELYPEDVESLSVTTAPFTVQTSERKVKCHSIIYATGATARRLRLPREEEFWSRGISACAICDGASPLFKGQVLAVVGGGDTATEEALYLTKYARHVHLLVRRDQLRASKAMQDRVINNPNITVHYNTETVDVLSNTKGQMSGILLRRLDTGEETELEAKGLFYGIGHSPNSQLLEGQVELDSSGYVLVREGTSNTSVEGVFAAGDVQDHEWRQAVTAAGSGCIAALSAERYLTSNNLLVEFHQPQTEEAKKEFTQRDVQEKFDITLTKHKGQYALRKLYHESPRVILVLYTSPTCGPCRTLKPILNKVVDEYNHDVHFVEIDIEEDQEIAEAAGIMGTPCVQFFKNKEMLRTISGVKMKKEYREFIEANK
# Protocol: as §1, with “2019).” for “2019). MS/MS spectra were interpreted, and peak lists were generated using Proteome Discoverer 2.0.0.802 (Thermo Fisher Scientific). Searches were performed using SEQUEST (Thermo Fisher Scientific) against the Arabidopsis thaliana (TAIR TaxID = 3,702) peptide sequence database.”
# as §3
# MPK family = test: AMI‐329 bead binding with AMI‐331 competitor, MPK family; set-up: species or system Arabidopsis thaliana
# Protocol: as §1, §2
# NRPB3 (AT2G15430) = biological target: T7, NRPB3 (AT2G15430) (Arabidopsis thaliana, UniProt Q39211); test: AMI‐329 bead binding with AMI‐331 competitor, NRPB3
# T7 construct: from tissue; host or cells: Arabidopsis seedlings, two weeks old
# T7 sequence (Q39211 whole entry): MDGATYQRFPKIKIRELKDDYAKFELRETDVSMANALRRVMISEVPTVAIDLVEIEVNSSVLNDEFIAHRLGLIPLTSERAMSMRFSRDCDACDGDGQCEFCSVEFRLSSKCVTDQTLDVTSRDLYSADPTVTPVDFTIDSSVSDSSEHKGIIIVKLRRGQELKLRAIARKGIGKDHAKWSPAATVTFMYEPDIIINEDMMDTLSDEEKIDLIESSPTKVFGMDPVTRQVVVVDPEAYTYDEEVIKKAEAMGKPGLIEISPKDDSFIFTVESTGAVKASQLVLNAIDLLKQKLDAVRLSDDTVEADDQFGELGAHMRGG
# Protocol: as §1, with “2019).” for “2019). MS/MS spectra were interpreted, and peak lists were generated using Proteome Discoverer 2.0.0.802 (Thermo Fisher Scientific). Searches were performed using SEQUEST (Thermo Fisher Scientific) against the Arabidopsis thaliana (TAIR TaxID = 3,702) peptide sequence database.”
# as §3
# HYD1 (AT1G20050) = biological target: T8, HYD1 (AT1G20050) (Arabidopsis thaliana, UniProt O48962); test: AMI‐329 bead binding with AMI‐331 competitor, HYD1
# T8 construct: from tissue; host or cells: Arabidopsis seedlings, two weeks old
# T8 sequence (O48962 whole entry): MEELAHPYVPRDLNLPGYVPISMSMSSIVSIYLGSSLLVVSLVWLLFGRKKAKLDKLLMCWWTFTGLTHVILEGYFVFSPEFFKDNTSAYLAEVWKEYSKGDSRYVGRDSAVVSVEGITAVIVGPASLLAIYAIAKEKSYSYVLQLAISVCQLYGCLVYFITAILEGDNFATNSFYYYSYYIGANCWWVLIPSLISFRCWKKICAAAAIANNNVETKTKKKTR
# Protocol: as §1, with “2019).” for “2019). MS/MS spectra were interpreted, and peak lists were generated using Proteome Discoverer 2.0.0.802 (Thermo Fisher Scientific). Searches were performed using SEQUEST (Thermo Fisher Scientific) against the Arabidopsis thaliana (TAIR TaxID = 3,702) peptide sequence database.”
# as §3
smiles,measurement,setting,value
C#CCn1c2c(c(Br)c1-c1ccncc1)C(=O)NCC2.Cl [AMI‐331],Target status from enrichment in 0 µM versus 5 or 50 µM samples,CPK family,not a target
same,Spectra (PSMs) AMI‐329 beads bound,CKL12 (AT5G57015); competitor AMI‐331 5 µM,2 PSMs
same,Spectra (PSMs) AMI‐329 beads bound,CKL12 (AT5G57015); competitor AMI‐331 50 µM,0 PSMs
same,Spectra (PSMs) AMI‐329 beads bound,CKL11 (AT4G14340); competitor AMI‐331 5 µM,1 PSMs
same,Spectra (PSMs) AMI‐329 beads bound,CKL11 (AT4G14340); competitor AMI‐331 50 µM,0 PSMs
same,Spectra (PSMs) AMI‐329 beads bound,CKL9 (AT1G03930); competitor AMI‐331 5 µM,1 PSMs
same,Spectra (PSMs) AMI‐329 beads bound,CKL9 (AT1G03930); competitor AMI‐331 50 µM,0 PSMs
same,IC50,CKL1,1400 nM
same,Spectra (PSMs) AMI‐329 beads bound,[1]; competitor AMI‐331 5 µM,0 PSMs
same,Spectra (PSMs) AMI‐329 beads bound,[1]; competitor AMI‐331 50 µM,0 PSMs
same,Spectra (PSMs) AMI‐329 beads bound,CKL10 (AT3G23340); competitor AMI‐331 5 µM,1 PSMs
same,Spectra (PSMs) AMI‐329 beads bound,CKL10 (AT3G23340); competitor AMI‐331 50 µM,0 PSMs
same,Spectra (PSMs) AMI‐329 beads bound,Reductase C (AT2G41680); competitor AMI‐331 5 µM,0 PSMs
same,Spectra (PSMs) AMI‐329 beads bound,Reductase C (AT2G41680); competitor AMI‐331 50 µM,0 PSMs
same,Spectra on AMI‐329 beads relative to 0 µM sample,MPK family; 5 µM AMI‐331 as competitor,13%–85%
same,Spectra on AMI‐329 beads relative to 0 µM sample,MPK family; 50 µM AMI‐331 as competitor,0%–31%
same,Spectra (PSMs) AMI‐329 beads bound,NRPB3 (AT2G15430); competitor AMI‐331 5 µM,0 PSMs
same,Spectra (PSMs) AMI‐329 beads bound,NRPB3 (AT2G15430); competitor AMI‐331 50 µM,0 PSMs
same,Spectra (PSMs) AMI‐329 beads bound,HYD1 (AT1G20050); competitor AMI‐331 5 µM,0 PSMs
same,Spectra (PSMs) AMI‐329 beads bound,HYD1 (AT1G20050); competitor AMI‐331 50 µM,0 PSMs
